Experimental data reported in patent US4118561A, “7-(Substituted)-7H-pyrrolo[3,2-f]quinazoline-1,3-diamines” (priority 1977, dated 1978).
Converted amounts (≈) assume the structure as drawn.

Assays:
P. vulgaris 6896 = assay: In vitro antibacterial activity (MIC), P. vulgaris 6896; details: Proteus vulgaris, 6896, 18 h
N. catarrhalis 8193 = assay: In vitro antibacterial activity (MIC), N. catarrhalis 8193; details: 18 h
S. aureus Smith = assay: In vitro antibacterial activity (MIC), S. aureus Smith; details: Staphylococcus aureus, 18 h
E. coli 9637 = assay: In vitro antibacterial activity (MIC), E. coli 9637; details: Escherichia coli, 9637, 18 h
S. paratyphi 11737 = assay: In vitro antibacterial activity (MIC), S. paratyphi 11737; type: cell-based; details: Salmonella enterica, 18 h
K. pneumoniae 10031 = assay: In vitro antibacterial activity (MIC), K. pneumoniae 10031; details: Klebsiella pneumoniae, 10031, 18 h
S. aureus 53-180 = assay: In vitro antibacterial activity (MIC), S. aureus 53-180; details: Staphylococcus aureus, 53180, 18 h

Structure (SMILES) | MIC (P. vulgaris 6896) | MIC (N. catarrhalis 8193) | MIC (S. aureus Smith) | MIC (E. coli 9637) | MIC (S. paratyphi 11737) | MIC (K. pneumoniae 10031) | MIC (S. aureus 53-180)
N#Cc1ccccc1-n1ccc2c3c(N)nc(N)nc3ccc21 [Example 73] | 0.488 µg/mL (≈ 1.62 µM) | 0.0038 µg/mL (≈ 0.0127 µM) | 0.031 µg/mL (≈ 0.103 µM) | 0.122 µg/mL (≈ 0.406 µM) | 0.122 µg/mL (≈ 0.406 µM) | 0.0152 µg/mL (≈ 0.0506 µM) | 0.0152 µg/mL (≈ 0.0506 µM)
CCC(=O)c1ccc(-n2ccc3c4c(N)nc(N)nc4ccc32)cc1 [Example 72] | > 250 µg/mL | 0.031 µg/mL (≈ 0.0935 µM) | 31.3 µg/mL (≈ 94.5 µM) | 15.6 µg/mL (≈ 47.1 µM) | > 250 µg/mL | 31.3 µg/mL (≈ 94.5 µM) | 7.81 µg/mL (≈ 23.6 µM)
Nc1nc(N)c2c(ccc3c2ccn3-c2ccccc2C(F)(F)F)n1 [Example 93] | 1.95 µg/mL (≈ 5.68 µM) | 0.0076 µg/mL (≈ 0.0221 µM) | 0.061 µg/mL (≈ 0.178 µM) | 0.244 µg/mL (≈ 0.711 µM) | 0.976 µg/mL (≈ 2.84 µM) | 0.061 µg/mL (≈ 0.178 µM) | 0.031 µg/mL (≈ 0.0903 µM)
Nc1nc(N)c2c(ccc3[nH]ccc32)n1 [Example 1, 7-H-Pyrrolo[3,2-f]quinazoline-1,3-diamine] | 15.6 µg/mL (≈ 78.3 µM) | 0.244 µg/mL (≈ 1.22 µM) | 31.3 µg/mL (≈ 157 µM) | 3.9 µg/mL (≈ 19.6 µM) | 31.3 µg/mL (≈ 157 µM) | 7.81 µg/mL (≈ 39.2 µM) | 31.3 µg/mL (≈ 157 µM)
Nc1nc(N)c2c(ccc3c2ccn3-c2ccc3ccccc3n2)n1 [Example 86] | > 250 µg/mL | 0.122 µg/mL (≈ 0.374 µM) | > 250 µg/mL | > 250 µg/mL | > 250 µg/mL | > 250 µg/mL | > 250 µg/mL
COc1ccc(OC)c(Cn2ccc3c4c(N)nc(N)nc4ccc32)c1 [Example 36] | 3.9 µg/mL (≈ 11.2 µM) | 0.031 µg/mL (≈ 0.0887 µM) | 0.244 µg/mL (≈ 0.698 µM) | 0.976 µg/mL (≈ 2.79 µM) | 3.9 µg/mL (≈ 11.2 µM) | 0.031 µg/mL (≈ 0.0887 µM) | 0.122 µg/mL (≈ 0.349 µM)
Cc1cc2c3c(N)nc(N)nc3ccc2n1Cc1cccc(C#N)c1 [Example 101] | 3.9 µg/mL (≈ 11.9 µM) | 0.0038 µg/mL (≈ 0.0116 µM) | 0.122 µg/mL (≈ 0.372 µM) | 0.488 µg/mL (≈ 1.49 µM) | 3.9 µg/mL (≈ 11.9 µM) | 0.061 µg/mL (≈ 0.186 µM) | 0.061 µg/mL (≈ 0.186 µM)
Nc1nc(N)c2c(ccc3c2c2c(n3Cc3ccccc3)CCCC2)n1 [Example 108, 8,9,10,11-Tetrahydro-7-(phenylmethyl)-7H-pyrimido[4,5-c]carbazole-1,3-diamine] | > 250 µg/mL | 0.122 µg/mL (≈ 0.355 µM) | > 250 µg/mL | > 250 µg/mL | > 250 µg/mL | > 250 µg/mL | 250 µg/mL (≈ 728 µM)
Nc1nc(N)c2c(ccc3c2ccn3-c2cc(-c3ccccc3)nc3ccccc23)n1 [Example 95] | > 250 µg/mL | 15.6 µg/mL (≈ 38.8 µM) | 31.3 µg/mL (≈ 77.8 µM) | 250 µg/mL (≈ 621 µM) | > 250 µg/mL | 250 µg/mL (≈ 621 µM) | 7.81 µg/mL (≈ 19.4 µM)
Cc1cc2c3c(N)nc(N)nc3ccc2n1C [Example 99] | 0.976 µg/mL (≈ 4.29 µM) | 0.061 µg/mL (≈ 0.268 µM) | 31.3 µg/mL (≈ 138 µM) | 0.244 µg/mL (≈ 1.07 µM) | 1.95 µg/mL (≈ 8.58 µM) | 0.244 µg/mL (≈ 1.07 µM) | 31.3 µg/mL (≈ 138 µM)
Cc1cc(-n2ccc3c4c(N)nc(N)nc4ccc32)nc2ccccc12 [Example 88] | > 250 µg/mL | 0.061 µg/mL (≈ 0.179 µM) | 62.5 µg/mL (≈ 184 µM) | 62.5 µg/mL (≈ 184 µM) | > 250 µg/mL | 31.3 µg/mL (≈ 92 µM) | 31.3 µg/mL (≈ 92 µM)
Cc1noc(C)c1Cn1ccc2c3c(N)nc(N)nc3ccc21 [Example 52] | 3.9 µg/mL (≈ 12.6 µM) | 0.0152 µg/mL (≈ 0.0493 µM) | 1.95 µg/mL (≈ 6.32 µM) | 0.976 µg/mL (≈ 3.17 µM) | 1.95 µg/mL (≈ 6.32 µM) | 0.244 µg/mL (≈ 0.791 µM) | 0.976 µg/mL (≈ 3.17 µM)
Nc1nc(N)c2c(ccc3[nH]c4c(c32)CCCC4)n1 [Example 107, 8,9,10,11-Tetrahydro-7H-pyrimido-[4,5-c]carbazole-1,3-diamine] | > 250 µg/mL | 125 µg/mL (≈ 493 µM) | 62.5 µg/mL (≈ 247 µM) | 125 µg/mL (≈ 493 µM) | 125 µg/mL (≈ 493 µM) | 125 µg/mL (≈ 493 µM) | 125 µg/mL (≈ 493 µM)
Nc1nc(N)c2c(ccc3c2ccn3Cc2ccc(C(=O)[O-])cc2)n1.[Na+] [Example 68, 7-(4-Carboxybenzyl)-7H-pyrrolo[3,2-f]-quinazoline-1,3-diamine, sodium salt] | 250 µg/mL | 62.5 µg/mL | 250 µg/mL | > 250 µg/mL | > 250 µg/mL | > 250 µg/mL | 250 µg/mL
Nc1nc(N)c2c(ccc3c2ccn3Cc2csc3ccccc23)n1 [Example 46] | > 250 µg/mL | 1.95 µg/mL (≈ 5.65 µM) | 31.3 µg/mL (≈ 90.6 µM) | 125 µg/mL (≈ 362 µM) | > 250 µg/mL | 15.6 µg/mL (≈ 45.2 µM) | 31.3 µg/mL (≈ 90.6 µM)
CCOc1ccc(Cn2ccc3c4c(N)nc(N)nc4ccc32)cc1 [Example 40] | 7.81 µg/mL (≈ 23.4 µM) | 0.122 µg/mL (≈ 0.366 µM) | 1.95 µg/mL (≈ 5.85 µM) | 1.95 µg/mL (≈ 5.85 µM) | 7.81 µg/mL (≈ 23.4 µM) | 3.9 µg/mL (≈ 11.7 µM) | 0.488 µg/mL (≈ 1.46 µM)
